Test results as given in PubChem BioAssay (NCI).
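How tested: cells in 96-well plates exposed to compound for 48 hours at five concentrations. TGI marks complete inhibition of growth.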

Legend:
Test in all cases: NCI-60 cell line screen, 48 h
786-0 renal = test system: 786-0 renal
A498 renal = test system: A498 renal
A549 NSCLC = test system: A549 NSCLC
ACHN renal = test system: ACHN renal
BT-549 breast = test system: BT-549 breast
CAKI-1 renal = test system: CAKI-1 renal
CCRF-CEM leukemia = test system: CCRF-CEM leukemia
COLO 205 colon = test system: COLO 205 colon
DU-145 prostate = test system: DU-145 prostate
EKVX NSCLC = test system: EKVX NSCLC
HCC-2998 colon = test system: HCC-2998 colon
HCT-116 colon = test system: HCT-116 colon
HCT-15 colon = test system: HCT-15 colon
HL-60(TB) leukemia = test system: HL-60(TB) leukemia
HOP-62 NSCLC = test system: HOP-62 NSCLC
HOP-92 NSCLC = test system: HOP-92 NSCLC
HS 578T breast = test system: HS 578T breast
HT29 colon = test system: HT29 colon
IGROV1 ovarian = test system: IGROV1 ovarian
K-562 leukemia = test system: K-562 leukemia
KM12 colon = test system: KM12 colon
LOX IMVI melanoma = test system: LOX IMVI melanoma
M14 melanoma = test system: M14 melanoma
MALME-3M melanoma = test system: MALME-3M melanoma
MCF7 breast = test system: MCF7 breast
MDA-MB-231 breast = test system: MDA-MB-231 breast
MDA-MB-435 = test system: MDA-MB-435
MDA-N = test system: MDA-N
MOLT-4 leukemia = test system: MOLT-4 leukemia
NCI-H226 lung = test system: NCI-H226 lung
NCI-H23 lung = test system: NCI-H23 lung
NCI-H460 lung = test system: NCI-H460 lung
NCI-H522 lung = test system: NCI-H522 lung
NCI/ADR-RES ovarian = test system: NCI/ADR-RES ovarian
OVCAR-3 ovarian = test system: OVCAR-3 ovarian
OVCAR-4 ovarian = test system: OVCAR-4 ovarian
OVCAR-5 ovarian = test system: OVCAR-5 ovarian
OVCAR-8 ovarian = test system: OVCAR-8 ovarian
PC-3 prostate = test system: PC-3 prostate
RPMI-8226 leukemia = test system: RPMI-8226 leukemia
RXF 393 renal = test system: RXF 393 renal
SF-268 CNS = test system: SF-268 CNS
SF-295 CNS = test system: SF-295 CNS
SF-539 CNS = test system: SF-539 CNS
SK-MEL-2 melanoma = test system: SK-MEL-2 melanoma
SK-MEL-28 melanoma = test system: SK-MEL-28 melanoma
SK-MEL-5 melanoma = test system: SK-MEL-5 melanoma
SN12C renal = test system: SN12C renal
SNB-19 CNS = test system: SNB-19 CNS
SNB-75 CNS = test system: SNB-75 CNS
SR leukemia = test system: SR leukemia
SW-620 colon = test system: SW-620 colon
T-47D breast = test system: T-47D breast
TK-10 renal = test system: TK-10 renal
U251 CNS = test system: U251 CNS
UACC-257 melanoma = test system: UACC-257 melanoma
UACC-62 melanoma = test system: UACC-62 melanoma
UO-31 renal = test system: UO-31 renal
DMS 114 small cell lung = test system: DMS 114 small cell lung
DMS 273 small cell lung = test system: DMS 273 small cell lung
KM20L2 colon = test system: KM20L2 colon
LXFL 529 NSCLC = test system: LXFL 529 NSCLC
M19-MEL melanoma = test system: M19-MEL melanoma
XF 498 CNS = test system: XF 498 CNS

Structure (SMILES): COc1cc2ccccc2oc1=O
- TGI (786-0 renal): > 100 µM
- TGI (A498 renal): > 100 µM
- TGI (A549 NSCLC): > 100 µM
- TGI (ACHN renal): > 100 µM
- TGI (BT-549 breast): > 100 µM
- TGI (CAKI-1 renal): > 100 µM
- TGI (CCRF-CEM leukemia): > 100 µM
- TGI (COLO 205 colon): > 100 µM
- TGI (DU-145 prostate): > 100 µM
- TGI (EKVX NSCLC): > 100 µM
- TGI (HCC-2998 colon): > 100 µM
- TGI (HCT-116 colon): > 100 µM
- TGI (HCT-15 colon): > 100 µM
- TGI (HL-60(TB) leukemia): > 100 µM
- TGI (HOP-62 NSCLC): > 100 µM
- TGI (HOP-92 NSCLC): > 100 µM
- TGI (HS 578T breast): > 100 µM
- TGI (HT29 colon): > 100 µM
- TGI (IGROV1 ovarian): > 100 µM
- TGI (K-562 leukemia): > 100 µM
- TGI (KM12 colon): > 100 µM
- TGI (LOX IMVI melanoma): > 100 µM
- TGI (M14 melanoma): > 100 µM
- TGI (MALME-3M melanoma): > 100 µM
- TGI (MCF7 breast): > 100 µM
- TGI (MDA-MB-231 breast): > 100 µM
- TGI (MDA-MB-435): > 100 µM
- TGI (MDA-N): > 100 µM
- TGI (MOLT-4 leukemia): > 100 µM
- TGI (NCI-H226 lung): > 100 µM
- TGI (NCI-H23 lung): > 100 µM
- TGI (NCI-H460 lung): > 100 µM
- TGI (NCI-H522 lung): > 100 µM
- TGI (NCI/ADR-RES ovarian): > 100 µM
- TGI (OVCAR-3 ovarian): > 100 µM
- TGI (OVCAR-4 ovarian): > 100 µM
- TGI (OVCAR-5 ovarian): > 100 µM
- TGI (OVCAR-8 ovarian): > 100 µM
- TGI (PC-3 prostate): > 100 µM
- TGI (RPMI-8226 leukemia): > 100 µM
- TGI (RXF 393 renal): 48.5 µM
- TGI (SF-268 CNS): > 100 µM
- TGI (SF-295 CNS): > 100 µM
- TGI (SF-539 CNS): > 100 µM
- TGI (SK-MEL-2 melanoma): > 100 µM
- TGI (SK-MEL-28 melanoma): > 100 µM
- TGI (SK-MEL-5 melanoma): > 100 µM
- TGI (SN12C renal): > 100 µM
- TGI (SNB-19 CNS): > 100 µM
- TGI (SNB-75 CNS): > 100 µM
- TGI (SR leukemia): > 100 µM
- TGI (SW-620 colon): > 100 µM
- TGI (T-47D breast): > 100 µM
- TGI (TK-10 renal): > 100 µM
- TGI (U251 CNS): > 100 µM
- TGI (UACC-257 melanoma): > 100 µM
- TGI (UACC-62 melanoma): > 100 µM
- TGI (UO-31 renal): > 100 µM

Structure (SMILES): COC(=O)CC1NC(=O)[C@@H]1C(C)O (stereo partly specified)
- TGI (786-0 renal): > 100 µM
- TGI (A498 renal): > 100 µM
- TGI (A549 NSCLC): > 100 µM
- TGI (ACHN renal): > 100 µM
- TGI (CCRF-CEM leukemia): > 100 µM
- TGI (COLO 205 colon): > 100 µM
- TGI (DMS 114 small cell lung): > 100 µM
- TGI (DMS 273 small cell lung): > 100 µM
- TGI (EKVX NSCLC): > 100 µM
- TGI (HCC-2998 colon): > 100 µM
- TGI (HCT-116 colon): > 100 µM
- TGI (HCT-15 colon): > 100 µM
- TGI (HL-60(TB) leukemia): > 100 µM
- TGI (HOP-62 NSCLC): > 100 µM
- TGI (HT29 colon): > 100 µM
- TGI (IGROV1 ovarian): > 100 µM
- TGI (K-562 leukemia): > 100 µM
- TGI (KM20L2 colon): > 100 µM
- TGI (LOX IMVI melanoma): > 100 µM
- TGI (LXFL 529 NSCLC): > 100 µM
- TGI (M14 melanoma): > 100 µM
- TGI (M19-MEL melanoma): > 100 µM
- TGI (MALME-3M melanoma): > 100 µM
- TGI (MOLT-4 leukemia): > 100 µM
- TGI (NCI-H226 lung): > 100 µM
- TGI (NCI-H460 lung): > 100 µM
- TGI (OVCAR-3 ovarian): > 100 µM
- TGI (OVCAR-4 ovarian): > 100 µM
- TGI (OVCAR-8 ovarian): > 100 µM
- TGI (RPMI-8226 leukemia): > 100 µM
- TGI (RXF 393 renal): > 100 µM
- TGI (SF-268 CNS): > 100 µM
- TGI (SF-295 CNS): > 100 µM
- TGI (SF-539 CNS): > 100 µM
- TGI (SK-MEL-2 melanoma): > 100 µM
- TGI (SK-MEL-28 melanoma): > 100 µM
- TGI (SK-MEL-5 melanoma): > 100 µM
- TGI (SN12C renal): > 100 µM
- TGI (SNB-19 CNS): > 100 µM
- TGI (SNB-75 CNS): > 100 µM
- TGI (SR leukemia): > 100 µM
- TGI (SW-620 colon): > 100 µM
- TGI (TK-10 renal): > 100 µM
- TGI (U251 CNS): > 100 µM
- TGI (UACC-257 melanoma): > 100 µM
- TGI (UACC-62 melanoma): > 100 µM
- TGI (UO-31 renal): > 100 µM
- TGI (XF 498 CNS): > 100 µM
